Results on twelve molecules are retold here after US9586986B2, “Substituted 7-deazapurine ribonucleosides for therapeutic uses” (Institute of Organic Chemistry and Biochemistry ASCR, v.v.i., priority 2014, dated 2017).

Where only a bound is given, the exact number is not on record here.

For orientation: CC50 means the concentration giving 50% cytotoxicity. A high value points to lower toxicity to the cells. The IC50 is the concentration that gives 50% inhibition. A word on the EC50: it is the concentration at which the effect is half-maximal.

Common to all, as to assay type: cell-based
Data set [1] relates to Huh-7 cells harboring replicon 1B. Put plainly: Cytotoxicity in replicon 1B cells. The note with it: HCV subtype 1B replicon. The method, then: (§1) Compounds were also tested in Huh-7 cells harboring sub-genomic reporter replicons derived from HCV subtypes 1B and 2A (ref.: Stuyver, L. J.; Whitaker, T.; McBrayer, T. R.; Hernandez-Santiago, B. I.; Lostia, S.; Tharnish, P. M.; Ramesh, M.; Chu, C. K.; Jordan, R.; Shi, J. X.; Rachakonda, S.; Watanabe, K. A.; Otto, M. J.; Schinazi, R. F. Antimicrob. Agents Chemother. 2003, 47, 244-254).
A general note: A replicon is a self-replicating genome or part of one, used to study replication in cells.

The next data set has as its system HeLa S3. Put plainly: XTT cytotoxicity assay, HeLa S3. The note with it: Homo sapiens, HeLa S3; 72 h incubation; read-out: XTT, IC50 HeLa S3. How it is done:
(§2) HL-60, Hela S3 and HepG2 cell lines (ATCC) were grown in RPMI-1640 or DMEM medium supplemented with 10% fetal calf serum, […] of streptomycin, 200 U/mL of penicillin G and 4 mM glutamine in a humidified atmosphere containing 5% CO2 at 37° C. Sensitivity of these cell lines to the synthesized compounds was assessed with the use of XTT cell proliferation kit II (Roche Diagnostics GmbH, Mannheim, Germany) according to the manufacturer's instructions. Briefly, cells were seeded in a 96-well plate at a density of 10,000 cells per well (90 μL). After 24 h, 10 μL of the tested compounds were added to the culture media at desired concentration range and incubated for 72 h. After that 50 μL of the XTT solution was added (1 mg/mL XTT+0.383 mg/mL N-methyl dibenzopyrazine methyl sulfate). The absorbance was recorded at 495 nm following a 2 h-incubation with the dye. IC50 values were determined by non-linear regression method using GraphPad Prism version 5.00 for Windows (GraphPad Software, La Jolla, Calif., USA).
In addition, the anti-proliferative effect was tested against a human T-lymphoblastic leukemia line CCRF-CEM, promyelocytic leukemia HL-60 and cervical carcinoma HeLa S3 growing in liquid suspension. Cell viability was determined following a 3-day incubation using 2,3-bis-(2-methoxy-4-nitro-5-sulfophenyl)-2H-tetrazolium-5-carboxanilide (XTT) assay (ref.: Scudiero, D. A.; Shoemaker, R. H.; Paull, K. D.; Monks, A.; Tierney, S.; Nofziger, T. H.; Currens, M. J.; Seniff, D.; Boyd M. R. Evaluation of a Soluble Tetrazolium/Formazan Assay for Cell Growth and Drug Sensitivity in Culture Using Human and Other Tumor Cell Lines. Cancer Res. 1988, 48, 4827-4833).

For another data set, the system named is HCT116. Put plainly: Cytostatic/cytotoxic MTT assay, HCT116. The note with it: Homo sapiens, HCT-116; 72 h incubation; read-out: MTT, IC50 HCT116. The text has this:
(§3) Unless otherwise stated, all cells were purchased from the […] (ATCC). The CCRF-CEM line is derived from T lymphoblastic leukemia, evincing high chemosenzitivity, K562 represent cells from a […] patient sample with bcr-abl translocation, HCT116 is colorectal tumor cell line and its p53 gene knock-down counterpart (HCT116p53−/−, Horizon Discovery, UK) is a model of human cancers with p53 inactivation frequently associated with poor prognosis, A549 cell line is lung adenocarcinoma. The daunorubicin resistant subline of CCRF-CEM cells (CEM-DNR bulk) and paclitaxel resistant subline K562-TAX were selected in our laboratory by cultivation of maternal cell lines in increasing concentrations of daunorubicine or paclitaxel, respectively. The CEM-DNR cells overexpress mrp-1 and mdr-1 genes, while K562-TAX cells overexpress mdr-1 only. Both proteins belong to the family of ABC transporters and are involved in the primary and/or acquired multidrug resistance phenomenon (ref.: Gottesman, M. M.; Fojo, T.; Bates, S. E. Multidrug resistance in cancer: role of ATP-dependent transporters. Nat. Rev. Cancer. 2002, 2, 48-58. (b) Noskova, V.; Dzubak, P.; Kuzmina, G.; Ludkova, A.; Stehlik, D.; Trojanec, R.; Janostakova, A.; Korinkova, G.; Mihal, V.; Hajduch, M. In vitro chemoresistance profile and expression/function of MDR associated proteins in resistant cell lines derived from CCRF-CEM, K562, A549 and MDA MB 231 parental cells. Neoplasma 2002, 49, 418-425). Non-malignant MRC-5 and BJ cells, derived from normal human fibroblasts, were used as controls. The cells were maintained in Nunc/Corning 80 cm^2 plastic tissue culture flasks and cultured in cell culture medium (DMEM/RPMI 1640 with 5 g/L glucose, 2 mM glutamine, 100 U/mL penicillin, 100 µg/mL streptomycin, 10% fetal calf serum, and NaHCO3). Cell suspensions were prepared and diluted according to the particular cell type and the expected target cell density (25,000-30,000 cells/well based on cell growth characteristics). Cells were added by pipette (80 L) into 96-well microtiter plates. Inoculates were allowed a pre-incubation period of 24 h at 37° C. and 5% CO2 for stabilization. Four-fold dilutions, in 20-L aliquots, of the intended test concentration were added to the microtiter plate walls at time zero. All test compound concentrations were examined in duplicate. Incubation of the cells with the test compounds lasted for 72 h at 37° C., in a 5% CO2 atmosphere at 100% humidity. At the end of the incubation period, the cells were assayed using MTT. Aliquots (10 L) of the MTT stock solution (5 mg/ml) were pipetted into each well and incubated for another 1-4 h. After this incubation period the formazan produced was dissolved by addition of 100 µL/well of 10% aq SDS (pH 5.5), followed by a further incubation at 37° C. overnight. The optical density was measured at 540 nm. The IC50 value, the drug concentration inhibiting the cell growth by 50%, was calculated from appropriate dose-response curves.
(§4) In vitro cytotoxic/cytostatic activity final nucleosides 1-5 was initially evaluated against […] cell lines derived from human solid tumors including lung (A549 cells) and colon (HCT116 and HCT116p53−/−) carcinomas, as well as leukemia cell lines (CCRF-CEM, CEM-DNR, K562 and K562-TAX) and, for comparison, non-malignant BJ and MRC-5 fibroblasts. Concentrations inhibiting the cell growth by 50% (IC50) were determined using a quantitative metabolic staining with 3-(4,5-dimethylthiazol-2-yl)-2,5-diphenyltetrazolium bromide (MTT) (ref.: Denizot, F.; Lang, R. Rapid colorimetric assay for cell growth and survival: Modifications to the tetrazolium dye procedure giving improved sensitivity and reliability. J. Immunol. Meth. 1986, 89, 271-277) following a 3-day treatment.
(§5) Multidrug resistance is a major therapeutic problem in cancer chemotherapy. […]
On the technique in general: Formazan colour is commonly taken as a measure of viable cells.

The next data set concerns HepG2. Put plainly: XTT cytotoxicity assay, HepG2. The settings on record: Homo sapiens, HepG2; 72 h incubation; read-out: XTT, IC50 HepG2. The method, then: as §2
The subject of another data set is CEM-DNR-bulk. As to the kind of experiment: Cytostatic/cytotoxic MTT assay, CEM-DNR-bulk. The note with it: Homo sapiens; daunorubicin resistant subline, 72 h; read-out: MTT, IC50 CEM-DNR-bulk.
From the text: as §3, §4, §5

Data set [2] relates to HCV subtype 1B replicon in Huh-7 cells. Put plainly: HCV sub-genomic reporter replicon assay, subtype 1B. The settings on record: Hepatitis C virus; Huh-7 cells, HCV subtype 1B replicon; read-out: Replicon 1B EC50. How it is done: as §1

On to `COc1ncnc2c1c(-c1ccco1)cn2[C@@H]1O[C@H](CO)[C@@H](O)[C@H]1O` [Compound 1a, 5-(Furan-2-yl)-4-methoxy-7-(β-D-ribofuranosyl)-7H-pyrrolo[2,3-d]pyrimidine], for which the CC50 in data set [1] is above 44 µM. Also, the IC50 was determined as 1.02 µM in the data set on HeLa S3, 0.04 µM in the data set on HCT116, 0.3 µM with HepG2 and 0.16 µM with CEM-DNR-bulk. For the same molecule, the EC50 in data set [2] stood at 0.02 µM.

Consider `COc1ncnc2c1c(-c1ccoc1)cn2[C@@H]1O[C@H](CO)[C@@H](O)[C@H]1O` [Compound 1b, 5-(Furan-3-yl)-4-methoxy-7-(β-D-ribofuranosyl)-7H-pyrrolo[2,3-d]pyrimidine], for which the CC50 in data set [1] was above 44 µM. Further, the IC50 was 1.79 µM with HeLa S3, 0.11 µM in the data set on HCT116, 0.29 µM in the data set with HepG2 and above 20 µM with CEM-DNR-bulk. Moreover, in data set [2], the EC50 is 0.33 µM.

For `COc1ncnc2c1c(-c1cccs1)cn2[C@@H]1O[C@H](CO)[C@@H](O)[C@H]1O` [Compound 1c, 4-Methoxy-7-(β-D-ribofuranosyl)-5-(thiophen-2-yl)-7H-pyrrolo[2,3-d]pyrimidine], the half-maximal cytotoxic concentration (CC50) in data set [1] was above 44 µM. Moreover, the IC50 with HeLa S3 was determined as 1.76 µM; in the data set with HCT116, 0.08 µM; with HepG2, 13.9 µM; in the data set with CEM-DNR-bulk, 12.1 µM. Besides, in data set [2], the EC50 stood at 1.08 µM.

Regarding `COc1ncnc2c1c(-c1ccsc1)cn2[C@@H]1O[C@H](CO)[C@@H](O)[C@H]1O` [Compound 1d, 4-Methoxy-7-(β-D-ribofuranosyl)-5-(thiophen-3-yl)-7H-pyrrolo[2,3-d]pyrimidine], the CC50 in data set [1] is above 44 µM. Besides, the concentration for half-maximal inhibition (IC50) in the data set on HeLa S3 was 3.35 µM; with HCT116, 0.12 µM; in the data set on HepG2, 0.43 µM; in the data set with CEM-DNR-bulk, 7.64 µM. The EC50 in data set [2] was 0.55 µM.

With `COc1ncnc2c1c(-c1ccccc1)cn2[C@@H]1O[C@H](CO)[C@@H](O)[C@H]1O` [Compound 1e, 4-Methoxy-5-phenyl-7-(β-D-ribofuranosyl)-7H-pyrrolo[2,3-d]pyrimidine], the CC50 in data set [1] is above 44 µM. For the same molecule, the 50% inhibitory concentration (IC50) in the data set on HeLa S3, with HCT116, with HepG2 and with CEM-DNR-bulk was above 20 µM in each case. Moreover, the EC50 in data set [2] is 21 µM.

For `COc1ncnc2c1c(-c1cc3ccccc3o1)cn2[C@@H]1O[C@H](CO)[C@@H](O)[C@H]1O` [Compound 1f, 5-(Benzofuran-2-yl)-4-methoxy-7-(β-D-ribofuranosyl)-7H-pyrrolo[2,3-d]pyrimidine], the CC50 in data set [1] was above 44 µM. Moreover, the IC50 was 9.24 µM in the data set on HeLa S3, 13.8 µM in the data set with HCT116, above 20 µM in the data set with HepG2 and 10.8 µM with CEM-DNR-bulk. Moreover, the EC50 in data set [2] worked out at 2.64 µM.

In the case of `C#Cc1cn([C@@H]2O[C@H](CO)[C@@H](O)[C@H]2O)c2ncnc(OC)c12` [Compound 1g, 5-Ethynyl-4-methoxy-7-(β-D-ribofuranosyl)-7H-pyrrolo[2,3-d]pyrimidine], the CC50 in data set [1] was above 44 µM. Also, the concentration for half-maximal inhibition (IC50) in the data set with HeLa S3 was found to be 1.73 µM; with HCT116, 4.06 µM; in the data set with HepG2, 12.7 µM; with CEM-DNR-bulk, 3.49 µM. Moreover, in data set [2], the EC50 is 0.18 µM.

Turning to `COc1ncnc2c1c(I)cn2[C@@H]1O[C@H](CO)[C@@H](O)[C@H]1O` [Compound 1h, 5-iodo-4-methoxy-7-(β-D-ribofuranosyl)-7H-pyrrolo[2,3-d]pyrimidine, reference compound], in data set [1], the CC50 is above 44 µM. Also, the IC50 in the data set with HeLa S3 was 14.3 µM; with HCT116, above 20 µM; in the data set on HepG2, above 20 µM; in the data set with CEM-DNR-bulk, above 20 µM. For the same molecule, the EC50 in data set [2] was above 44 µM.

In data set [1], `CSc1ncnc2c1c(-c1ccco1)cn2[C@@H]1O[C@H](CO)[C@@H](O)[C@H]1O` [Compound 2a, 5-(Furan-2-yl)-4-methylsulfanyl-7-(β-D-ribofuranosyl)-7H-pyrrolo[2,3-d]pyrimidine] showed a CC50 of 38.6 µM. Besides, the IC50 amounted to 0.54 µM with HeLa S3, 0.02 µM with HCT116, 0.22 µM in the data set with HepG2 and 0.23 µM in the data set with CEM-DNR-bulk. The EC50 in data set [2] stood at 0.07 µM.

`CSc1ncnc2c1c(-c1ccoc1)cn2[C@@H]1O[C@H](CO)[C@@H](O)[C@H]1O` [Compound 2b, 5-(Furan-3-yl)-4-methylsulfanyl-7-(β-D-ribofuranosyl)-7H-pyrrolo[2,3-d]pyrimidine]: in data set [1], the CC50 was above 44 µM. Also, the IC50 is 5.39 µM in the data set with HeLa S3, 0.04 µM in the data set with HCT116, above 15 µM in the data set with HepG2 and above 20 µM in the data set with CEM-DNR-bulk. Besides, in data set [2], the EC50 is 4.72 µM.

Take `CSc1ncnc2c1c(-c1cccs1)cn2[C@@H]1O[C@H](CO)[C@@H](O)[C@H]1O` [Compound 2c, 4-Methylsulfanyl-7-(β-D-ribofuranosyl)-5-(thiophen-2-yl)-7H-pyrrolo[2,3-d]pyrimidine]: the CC50 in data set [1] was above 44 µM. The IC50 with HeLa S3 was 1.96 µM; in the data set on HCT116, above 20 µM; in the data set on HepG2 it was above 20 µM; in the data set with CEM-DNR-bulk it was above 20 µM. Moreover, the EC50 in data set [2] came out at 5.42 µM.

The molecule `CSc1ncnc2c1c(-c1ccsc1)cn2[C@@H]1O[C@H](CO)[C@@H](O)[C@H]1O` [Compound 2d, 4-Methylsulfanyl-7-(β-D-ribofuranosyl)-5-(thiophen-3-yl)-7H-pyrrolo[2,3-d]pyrimidine] registered a CC50 in data set [1] above 44 µM. Besides, the IC50 in the data set on HeLa S3 is above 20 µM; with HCT116, above 20 µM; in the data set on HepG2, above 15 µM; with CEM-DNR-bulk, above 20 µM. Also, in data set [2], the concentration for a half-maximal effect (EC50) came out at 10.9 µM.
